# Article PMC5218480 (PLoS ONE, 2017)
# Test system: MV-4-11 cells
# Test: Gene expression microarray analysis (Affymetrix PrimeView) and GSEA
# Type: cell-based, human
# Set-up: RFU PODN (11730768_x_at) / Fold change /veh PODN (11730768_x_at) / RFU LINC00158 (11744669_a_at) / Fold change /veh LINC00158 (11744669_a_at) / RFU DUSP10 (11751237_a_at) / Fold change /veh DUSP10 (11751237_a_at) / RFU ID3 (11757404_x_at) / Fold change /veh ID3 (11757404_x_at) / RFU PLEKHG5 (11737974_s_at) / Fold change /veh PLEKHG5 (11737974_s_at) / RFU LRRC4B (11730491_at) / Fold change /veh LRRC4B (11730491_at) / RFU GIMAP4 (11747438_a_at) / Fold change /veh GIMAP4 (11747438_a_at) / RFU KRT8 (11758183_x_at) / Fold change /veh KRT8 (11758183_x_at) / RFU CNN1 (11734310_a_at) / Fold change /veh CNN1 (11734310_a_at) / RFU VPS37D (11726825_at) / Fold change /veh VPS37D (11726825_at) / RFU C10orf10 (11716522_x_at) / Fold change /veh C10orf10 (11716522_x_at) / RFU KIR2DL2 /// KIR2DL4 /// KIR2DL5A /// KIR2DL5B /// KIR2DS1 /// KIR2DS2 /// KIR2DS3 /// KIR2DS4 /// KIR3DL3 /// KIR3DL3 /// KIR3DS1 (11738374_at) / Fold change /veh KIR2DL2 /// KIR2DL4 /// KIR2DL5A /// KIR2DL5B /// KIR2DS1 /// KIR2DS2 /// KIR2DS3 /// KIR2DS4 /// KIR3DL3 /// KIR3DL3 /// KIR3DS1 (11738374_at) / RFU C1QL1 (11718748_at) / Fold change /veh C1QL1 (11718748_at) / RFU TMPRSS4 (11747572_a_at) / Fold change /veh TMPRSS4 (11747572_a_at) / RFU HAMP (11756126_x_at) / Fold change /veh HAMP (11756126_x_at) / RFU RNFT2 (11725882_a_at) / Fold change /veh RNFT2 (11725882_a_at) / RFU NR4A2 (11747474_a_at) / Fold change /veh NR4A2 (11747474_a_at) / RFU ABCC12 (11746883_a_at) / Fold change /veh ABCC12 (11746883_a_at) / RFU TMEM136 (11760407_x_at) / Fold change /veh TMEM136 (11760407_x_at) / RFU CLDN22 /// WWC2 (11732394_at) / Fold change /veh CLDN22 /// WWC2 (11732394_at) / RFU HLA-DPB1 (11760878_x_at) / Fold change /veh HLA-DPB1 (11760878_x_at) / RFU SPINT1 (11716480_a_at) / Fold change /veh SPINT1 (11716480_a_at) / RFU GAP43 (11754022_s_at) / Fold change /veh GAP43 (11754022_s_at) / RFU A4GNT (11735810_at) / Fold change /veh A4GNT (11735810_at) / RFU PRB3 (11715151_x_at) / Fold change /veh PRB3 (11715151_x_at) / RFU TUBB4B (11761932_at) / Fold change /veh TUBB4B (11761932_at) / RFU CAPN14 (11732068_a_at) / Fold change /veh CAPN14 (11732068_a_at) / RFU TMCC2 (11721928_a_at) / Fold change /veh TMCC2 (11721928_a_at) / RFU IRGQ (11745062_a_at) / Fold change /veh IRGQ (11745062_a_at) / RFU FAM174B (11720279_a_at) / Fold change /veh FAM174B (11720279_a_at) / RFU TMPRSS4 (11748680_a_at) / Fold change /veh TMPRSS4 (11748680_a_at) / RFU FAM212B (11763350_a_at) / Fold change /veh FAM212B (11763350_a_at) / RFU PLEKHG5 (11743358_a_at) / Fold change /veh PLEKHG5 (11743358_a_at) / RFU ZSCAN30 (11745921_a_at) / Fold change /veh ZSCAN30 (11745921_a_at) / RFU CMKLR1 (11741424_a_at) / Fold change /veh CMKLR1 (11741424_a_at) / RFU LOC101060620 /// MAPK8IP1 (11723275_at) / Fold change /veh LOC101060620 /// MAPK8IP1 (11723275_at) / RFU SPTSSB (11747773_x_at) / Fold change /veh SPTSSB (11747773_x_at) / RFU PRSS12 (11739890_at) / Fold change /veh PRSS12 (11739890_at) / RFU BIN1 (11741810_x_at) / Fold change /veh BIN1 (11741810_x_at) / RFU WNT11 (11732464_a_at) / Fold change /veh WNT11 (11732464_a_at) / RFU C10orf10 (11716521_a_at) / Fold change /veh C10orf10 (11716521_a_at) / RFU C5orf56 (11738089_at) / Fold change /veh C5orf56 (11738089_at) / RFU CYB561 (11721691_x_at) / Fold change /veh CYB561 (11721691_x_at) / RFU ANKRD19P (11752326_a_at) / Fold change /veh ANKRD19P (11752326_a_at) / RFU OR2T12 /// OR2T33 /// OR2T8 (11738714_s_at) / Fold change /veh OR2T12 /// OR2T33 /// OR2T8 (11738714_s_at) / RFU VCAN (11748164_a_at) / Fold change /veh VCAN (11748164_a_at) / RFU JSRP1 (11732532_at) / Fold change /veh JSRP1 (11732532_at) / RFU KRTAP10-11 (11738290_x_at) / Fold change /veh KRTAP10-11 (11738290_x_at) / RFU MYO3A (11730013_a_at) / Fold change /veh MYO3A (11730013_a_at) / RFU EBF3 (11725865_a_at) / Fold change /veh EBF3 (11725865_a_at) / RFU CAMK2N1 (11719241_x_at) / Fold change /veh CAMK2N1 (11719241_x_at) / RFU C5orf56 (11738088_a_at) / Fold change /veh C5orf56 (11738088_a_at) / RFU OLFML3 (11715873_a_at) / Fold change /veh OLFML3 (11715873_a_at) / RFU LOC100653217 /// NTM (11731650_a_at) / Fold change /veh LOC100653217 /// NTM (11731650_a_at) / RFU MAPK11 (11762145_a_at) / Fold change /veh MAPK11 (11762145_a_at) / RFU FIZ1 (11724087_x_at) / Fold change /veh FIZ1 (11724087_x_at) / RFU OASL (11726364_x_at) / Fold change /veh OASL (11726364_x_at) / RFU SOX15 (11748057_x_at) / Fold change /veh SOX15 (11748057_x_at) / RFU CD79A (11719716_a_at) / Fold change /veh CD79A (11719716_a_at) / RFU HIST1H1D (11736915_at) / Fold change /veh HIST1H1D (11736915_at) / RFU CASKIN2 (11723855_a_at) / Fold change /veh CASKIN2 (11723855_a_at) / RFU LOC730098 (11760151_x_at) / Fold change /veh LOC730098 (11760151_x_at) / RFU OR4N2 (11742367_at) / Fold change /veh OR4N2 (11742367_at) / RFU PRRT2 (11749266_a_at) / Fold change /veh PRRT2 (11749266_a_at) / RFU SNX32 (11753110_a_at) / Fold change /veh SNX32 (11753110_a_at) / RFU CDHR5 (11726645_a_at) / Fold change /veh CDHR5 (11726645_a_at) / RFU RCAN1 (11760418_a_at) / Fold change /veh RCAN1 (11760418_a_at) / RFU FAM167A (11723789_a_at) / Fold change /veh FAM167A (11723789_a_at) / RFU FAM26E (11764081_at) / Fold change /veh FAM26E (11764081_at) / RFU ISYNA1 (11749810_s_at) / Fold change /veh ISYNA1 (11749810_s_at) / RFU ACY1 (11761880_at) / Fold change /veh ACY1 (11761880_at) / RFU 11764098_at / Fold change /veh 11764098_at / RFU SAMD14 (11745864_x_at) / Fold change /veh SAMD14 (11745864_x_at) / RFU NPB (11741838_a_at) / Fold change /veh NPB (11741838_a_at) / RFU TMPRSS6 (11731388_a_at) / Fold change /veh TMPRSS6 (11731388_a_at) / RFU KRTAP10-2 (11738614_at) / Fold change /veh KRTAP10-2 (11738614_at) / RFU ARHGAP8 /// PRR5-ARHGAP8 (11727945_x_at) / Fold change /veh ARHGAP8 /// PRR5-ARHGAP8 (11727945_x_at) / RFU KRTAP5-7 /// NADSYN1 (11734609_at) / Fold change /veh KRTAP5-7 /// NADSYN1 (11734609_at) / RFU RASL12 (11751679_a_at) / Fold change /veh RASL12 (11751679_a_at) / RFU CDKN2B (11736163_a_at) / Fold change /veh CDKN2B (11736163_a_at) / RFU PRF1 (11729649_at) / Fold change /veh PRF1 (11729649_at) / RFU, ZNF638 /// ZNF638-IT1 / Fold change vs veh, ZNF638 /// ZNF638-IT1 / RFU, PANK3 / Fold change vs veh, PANK3 / RFU, SH3YL1 / Fold change vs veh, SH3YL1 / RFU, ZEB2 / Fold change vs veh, ZEB2 / RFU, NRIP1 / Fold change vs veh, NRIP1 / RFU, PTTG1IP / Fold change vs veh, PTTG1IP / RFU, CAPN2 / Fold change vs veh, CAPN2 / RFU, MED14 / Fold change vs veh, MED14 / RFU, SNORA58 / Fold change vs veh, SNORA58 / RFU, C1orf63 / Fold change vs veh, C1orf63 / RFU, LRRFIP1 / Fold change vs veh, LRRFIP1 / RFU, NDUFAF7 / Fold change vs veh, NDUFAF7 / RFU, SLC12A2 / Fold change vs veh, SLC12A2 / RFU, IBTK / Fold change vs veh, IBTK / RFU, ESF1 / Fold change vs veh, ESF1 / Fold change vs veh, TMEM50B / RFU, TAOK1 / Fold change vs veh, TAOK1 / RFU, ACBD3 / Fold change vs veh, ACBD3 / RFU, TMA16 / Fold change vs veh, TMA16 / RFU, RWDD3 / Fold change vs veh, RWDD3 / RFU, BCAT1 / Fold change vs veh, BCAT1 / RFU, EDEM3 / Fold change vs veh, EDEM3 / RFU, TMEM33 / Fold change vs veh, TMEM33 / RFU, WDR75 / Fold change vs veh, WDR75 / RFU, AHCTF1 / Fold change vs veh, AHCTF1 / RFU, TFRC / Fold change vs veh, TFRC / RFU, ZDHHC17 / Fold change vs veh, ZDHHC17 / RFU, NOM1 / Fold change vs veh, NOM1 / RFU, ARL8B / Fold change vs veh, ARL8B / RFU, ZBTB11 / Fold change vs veh, ZBTB11 / RFU, TAMM41 / Fold change vs veh, TAMM41 / RFU, KIAA1704 /// LOC100996395 / Fold change vs veh, KIAA1704 /// LOC100996395 / RFU, ING1 / Fold change vs veh, ING1 / RFU, TRMT61B / Fold change vs veh, TRMT61B / RFU, FUBP3 / Fold change vs veh, FUBP3 / RFU, TP53 / Fold change vs veh, TP53 / RFU, TNKS2 / Fold change vs veh, TNKS2 / RFU, ZFP14 / Fold change vs veh, ZFP14 / RFU, ACTR2 / Fold change vs veh, ACTR2 / RFU, PPP3R1 / Fold change vs veh, PPP3R1 / RFU, PIK3R1 / Fold change vs veh, PIK3R1 / RFU, HNRNPA1 / Fold change vs veh, HNRNPA1 / RFU, RNF170 / Fold change vs veh, RNF170 / RFU, ZNF28 / Fold change vs veh, ZNF28 / RFU, RNGTT / Fold change vs veh, RNGTT / RFU, OGT / Fold change vs veh, OGT / RFU, BRD1 / Fold change vs veh, BRD1 / RFU, MARS / Fold change vs veh, MARS / RFU, ZNF655 / Fold change vs veh, ZNF655 / RFU, FAHD1 / Fold change vs veh, FAHD1 / RFU, BDP1 / Fold change vs veh, BDP1 / RFU, LRRCC1 / Fold change vs veh, LRRCC1 / RFU, ARID1A / Fold change vs veh, ARID1A / RFU, ZNF146 / Fold change vs veh, ZNF146 / RFU, ZNF330 / Fold change vs veh, ZNF330 / RFU, GPN3 / Fold change vs veh, GPN3 / RFU, C9orf123 / Fold change vs veh, C9orf123 / RFU, N4BP2L2 / Fold change vs veh, N4BP2L2 / RFU, ARFIP1 / Fold change vs veh, ARFIP1 / RFU, FAM179B / Fold change vs veh, FAM179B / RFU, BCL10 / Fold change vs veh, BCL10 / RFU, UHRF1BP1L / Fold change vs veh, UHRF1BP1L / RFU, BET1 / Fold change vs veh, BET1 / RFU, CNOT2 / Fold change vs veh, CNOT2 / RFU, ZNF268 / Fold change vs veh, ZNF268 / Fold change vs veh, ZNF507 / RFU, DGCR2 / Fold change vs veh, DGCR2 / RFU, WDSUB1 / Fold change vs veh, WDSUB1 / Fold change vs veh, HSP90B1 /// MIR3652 / RFU, ADSS / Fold change vs veh, ADSS / RFU, GK / Fold change vs veh, GK / RFU, ZNF148 / Fold change vs veh, ZNF148 / RFU, TAF9 / Fold change vs veh, TAF9 / RFU, SLC1A5 / Fold change vs veh, SLC1A5 / RFU, SLMO2 / Fold change vs veh, SLMO2 / RFU, ABCC4 / Fold change vs veh, ABCC4 / RFU, LOC101060439 /// RAP1B / Fold change vs veh, LOC101060439 /// RAP1B / RFU, RFX7 / Fold change vs veh, RFX7 / RFU, GTPBP10 / Fold change vs veh, GTPBP10 / RFU, CNEP1R1 / Fold change vs veh, CNEP1R1 / RFU, BIVM-ERCC5 /// ERCC5 / Fold change vs veh, BIVM-ERCC5 /// ERCC5 / RFU, ILF3 / Fold change vs veh, ILF3 / RFU 11762660_at / Fold change /veh 11762660_at / RFU VCAN (11757783_s_at) / Fold change /veh VCAN (11757783_s_at) / RFU DDX43 (11728927_at) / Fold change /veh DDX43 (11728927_at) / RFU KRT8 (11758188_x_at) / Fold change /veh KRT8 (11758188_x_at) / RFU NKD1 (11759106_at) / Fold change /veh NKD1 (11759106_at) / RFU SRD5A1 (11742802_a_at) / Fold change /veh SRD5A1 (11742802_a_at) / RFU TPSAB1 /// TPSB2 (11721975_s_at) / Fold change /veh TPSAB1 /// TPSB2 (11721975_s_at) / RFU GSTM3 (11746129_a_at) / Fold change /veh GSTM3 (11746129_a_at) / RFU IL23R (11737362_x_at) / Fold change /veh IL23R (11737362_x_at) / RFU TMEM51 (11727254_a_at) / Fold change /veh TMEM51 (11727254_a_at) / RFU PIWIL2 (11732686_x_at) / Fold change /veh PIWIL2 (11732686_x_at) / RFU ORM1 (11744905_x_at) / Fold change /veh ORM1 (11744905_x_at) / RFU CCDC152 (11743942_at) / Fold change /veh CCDC152 (11743942_at) / RFU ECM1 (11717891_a_at) / Fold change /veh ECM1 (11717891_a_at) / RFU IL23R (11748794_a_at) / Fold change /veh IL23R (11748794_a_at) / RFU TNFAIP8L3 (11732012_x_at) / Fold change /veh TNFAIP8L3 (11732012_x_at) / RFU MBOAT4 (11741988_at) / Fold change /veh MBOAT4 (11741988_at) / RFU 11764193_at / Fold change /veh 11764193_at / RFU TMEM53 (11763286_at) / Fold change /veh TMEM53 (11763286_at) / RFU MAGEB2 (11727129_at) / Fold change /veh MAGEB2 (11727129_at) / RFU TMEM200A (11744735_a_at) / Fold change /veh TMEM200A (11744735_a_at) / RFU CCDC152 (11751479_a_at) / Fold change /veh CCDC152 (11751479_a_at) / RFU FAM211A (11726209_a_at) / Fold change /veh FAM211A (11726209_a_at) / RFU RGS16 (11746705_a_at) / Fold change /veh RGS16 (11746705_a_at) / RFU VCAN (11755009_s_at) / Fold change /veh VCAN (11755009_s_at) / RFU RHOB (11743442_s_at) / Fold change /veh RHOB (11743442_s_at) / RFU RGS16 (11720943_a_at) / Fold change /veh RGS16 (11720943_a_at) / RFU RGS16 (11720944_at) / Fold change /veh RGS16 (11720944_at) / RFU, VPS4B / Fold change vs veh, VPS4B / RFU, CREB1 / Fold change vs veh, CREB1 / RFU, DNAJC13 / Fold change vs veh, DNAJC13 / RFU, GNAQ / Fold change vs veh, GNAQ / RFU, CDK5R1 / Fold change vs veh, CDK5R1 / RFU, ZRANB3 / Fold change vs veh, ZRANB3 / RFU, CUL4A / Fold change vs veh, CUL4A / RFU, CCNY / Fold change vs veh, CCNY / RFU, UFL1 / Fold change vs veh, UFL1 / RFU, COG3 / Fold change vs veh, COG3 / RFU, DIAPH2 / Fold change vs veh, DIAPH2 / RFU, SKA2 / Fold change vs veh, SKA2 / RFU, AFF3 / Fold change vs veh, AFF3 / RFU, LMF1 / Fold change vs veh, LMF1 / RFU, IPO11 / Fold change vs veh, IPO11 / RFU, DFFB / Fold change vs veh, DFFB / RFU, FOXP1 / Fold change vs veh, FOXP1 / RFU, CARD8 / Fold change vs veh, CARD8 / RFU, STRN3 / Fold change vs veh, STRN3 / RFU, ADK / Fold change vs veh, ADK / RFU, RASSF2 / Fold change vs veh, RASSF2 / RFU, WIPF1 / Fold change vs veh, WIPF1 / RFU, LARP1B / Fold change vs veh, LARP1B / RFU, RASA1 / Fold change vs veh, RASA1 / RFU, RB1 / Fold change vs veh, RB1 / RFU, PPFIA1 / Fold change vs veh, PPFIA1 / RFU, MAT2A / Fold change vs veh, MAT2A / RFU, CCT5 / Fold change vs veh, CCT5 / RFU, WDR92 / Fold change vs veh, WDR92 / RFU, CUX1 / Fold change vs veh, CUX1 / RFU, TTC7A / Fold change vs veh, TTC7A / RFU, TMEM135 / Fold change vs veh, TMEM135 / RFU, DEPTOR / Fold change vs veh, DEPTOR / RFU, CPM / Fold change vs veh, CPM / RFU, DNAJB6 / Fold change vs veh, DNAJB6 / RFU, CACNA2D3 / Fold change vs veh, CACNA2D3 / RFU, DTX4 / Fold change vs veh, DTX4 / RFU, TFCP2 / Fold change vs veh, TFCP2 / RFU, GMCL1 /// GMCL1P1 / Fold change vs veh, GMCL1 /// GMCL1P1 / RFU, AEBP2 / Fold change vs veh, AEBP2 / RFU, SNHG1 /// SNORD22 /// SNORD25 /// SNORD26 /// SNORD27 /// SNORD28 /// SNORD29 /// SNORD31 / Fold change vs veh, SNHG1 /// SNORD22 /// SNORD25 /// SNORD26 /// SNORD27 /// SNORD28 /// SNORD29 /// SNORD31 / Fold change (Aza/veh), C12orf56 (ProbeSet 11735607_a_at) / Fold change (ACY-1035/veh), C12orf56 (ProbeSet 11735607_a_at) / Fold change (Aza/veh), FGFR1OP (ProbeSet 11751329_s_at) / Fold change (ACY-1035/veh), FGFR1OP (ProbeSet 11751329_s_at) / Fold change (Aza/veh), VPS36 (ProbeSet 11739960_a_at) / Fold change (ACY-1035/veh), VPS36 (ProbeSet 11739960_a_at) / RFU SYPL1 (11715823_x_at) / Fold change /veh SYPL1 (11715823_x_at) / RFU IGFBP7 (11715501_s_at) / Fold change /veh IGFBP7 (11715501_s_at) / RFU REEP3 (11722064_at) / Fold change /veh REEP3 (11722064_at) / RFU IGLL1 (11728026_x_at) / Fold change /veh IGLL1 (11728026_x_at): dose or concentration left out as unconfirmed
# Conditions: gene FGFR1OP; ACY-1035 vs DMSO; LIST F
smiles,measurement,value
Nc1ccc(-c2cccs2)cc1NC(=O)c1ccc2c(c1)cc(C1CC1)n2CCN1CCOCC1 [ACY-1035],"Fold change (ACY-1035/veh), FGFR1OP (ProbeSet 11751329_s_at)",0.57
